# From paper PMC10777851, “SMT-738: a novel small-molecule inhibitor of bacterial lipoprotein transport targeting Enterobacteriaceae” (Antimicrobial Agents and Chemotherapy, 2023)
# “And” between values parts separate entries of the source, which are not always exact repeats. Equal entries are not always repeated.
# Experiments:
# E. coli = test: MIC by broth microdilution (CLSI) against E. coli; assay type: cell-based, Escherichia coli
# Procedure: (§1) MIC tests were performed by broth microdilution in-line with CLSI susceptibility testing standards ([20], [21]) either in-house or at IHMA (Europe and USA) or JMI Laboratories using cation-adjusted Mueller Hinton Broth.
# [1] = tested on: members of the Enterobacterales order; test: MIC, panel of 100 bacterial species: Enterobacterales; assay type: cell-based; settings: apart from the named exceptions
# Procedure: as §1
# Edwardsiella tarda = test: MIC, panel of 100 bacterial species; assay type: cell-based
# Procedure: as §1
# Haemophilus influenzae = test: MIC, panel of 100 bacterial species; assay type: cell-based
# Procedure: as §1
# [2] = tested on: Haemophilus parainfluenzae; test: MIC, panel of 100 bacterial species; assay type: cell-based
# Procedure: as §1
# Hafnia alvei = test: MIC, panel of 100 bacterial species; assay type: cell-based
# Procedure: as §1
# Morganella morganii = test: MIC, panel of 100 bacterial species; assay type: cell-based
# Procedure: as §1
# Proteus sp. = test: MIC, panel of 100 bacterial species; assay type: cell-based
# Procedure: as §1
# [3] = tested on: UPEC (E. coli NCTC 13441); test: Frequency of resistance determination, E. coli; assay type: cell-based, Escherichia coli; settings: for FoR Range: experiments with colonies observed
# Procedure: (§2) The FoR of bacterial strains to test compounds was determined by plating aliquots of overnight cultures onto MH-agar plates containing dilutions of the test compound at various multiples of reference MIC as previously determined. Total viable counts of the overnight cultures were determined by spotting 10–20 µL of decimal dilutions in 1× phosphate-buffered saline (PBS) onto non-selective agar. Assay plates were incubated for up to 48 h with colonies being enumerated every 24 h. FoR was determined by dividing the number of colonies observed by the total number of viable cells plated. Representative colonies were then picked and streaked onto selective agar to confirm resistance and obtain resistant isolates. Isolates growing on selective agar were then used to initiate overnight cultures, bacteria pelleted by centrifugation, supernatant removed, and pellets stored at −80°C for subsequent DNA extraction and whole-genome sequencing. Genomic DNA was extracted using the DNeasy Blood and Tissue Kit (Qiagen), quantified using the Quant-iT TM PicoGreen TM dsDNA Assay Kit (Thermo Fisher Scientific), and normalized to 0.2 ng/µL in nuclease-free water. Library preparation and barcode addition were with the Nextera XT DNA Library Prep Kit (Illumina). KAPA Pure beads (Roche) were used for DNA purification. Samples were pooled to achieve 100× coverage of each sample and run on an Illumina Nextseq 500/550 Mid Output Kit v2.5 (150 cycles) (Illumina).
# [4] = tested on: KPM (K. pneumoniae NCTC 13438); test: Frequency of resistance determination, K. pneumoniae; assay type: cell-based, Klebsiella pneumoniae; settings: for LoD Range: experiments with no colonies observed; for FoR Range: experiments with colonies observed
# Procedure: as §2
# [5] = tested on: UPEC (E. coli NCTC 13441) LolC and LolE mutants; test: MIC fold change of resistant LolC/LolE mutants, UPEC; assay type: cell-based, Escherichia coli
# Procedure: as §1
# as §2, with “Library preparation and barcode addition were with the Nextera XT DNA Library Prep Kit (Illumina). KAPA Pure beads (Roche) were used for DNA purification. Samples were pooled to achieve 100× coverage of each sample and run on an Illumina Nextseq 500/550 Mid Output Kit v2.5 (150 cycles) (Illumina).” left out
# HepG2 = test: Cytotoxicity (CellTiter-Glo), HepG2; assay type: cell-based; settings: HepG2, 24 h
# Procedure: (§3) HepG2 (ATCC, HB-8065) and HEK293 (ATCC, CRL-1573) were sourced from ATCC. For the cytotoxicity assay, cells were seeded onto 96-well plates, which were then incubated for 24 h in a 5% CO2 incubator at 37°C. On the day of the assay, 10-point, twofold serial dilutions of test compound were prepared in assay media (MEM + 10% FBS) in separate 96-well plates. Assay plates were removed from the incubator, and the media from all of the wells were removed, taking care not to disturb the cell layer. Compound-containing assay media or control media were added to the relevant wells. Assay plates were returned to the 5% CO2 incubator at 37°C for 24 h. CellTiter-Glo reagent (Promega, G7570) was used to determine the viability of the cells.
# HEK293 = test: Cytotoxicity (CellTiter-Glo), HEK293; assay type: cell-based; settings: HEK293, 24 h
# Procedure: as §3
# [6] = tested on: human lymphoblastoid TK6 cells; test: GreenScreen genotoxicity assay; assay type: cell-based; settings: top concentration of 500 µM (= 196.85 µg/mL)
# Procedure: The standard GreenScreen genotoxcity assay was performed by Cyprotex, UK. The assay uses two strains of human lymphoblastoid TK6 cells, the test strain (GenM-[…]), and the non-fluorescent control strain (GenM-C01). Incorporated in the test strain is a patented green fluorescent protein (GFP) reporter system that exploits the proper regulation of the GADD45a gene, which mediates the adaptive response to genotoxic stress.
# Protein binding, mouse = assay type: in vitro ADME
# Protein binding, rat = assay type: in vitro ADME
# Protein binding, human = assay type: in vitro ADME
# [7] = tested on: E. coli BAA 2469 (NDM-1 positive); test: Murine bloodstream infection model; assay type: in vivo, male CD-1 mice; settings: 60-min IV infusion, readout 9 h, below the limit of detection
# Procedure: Male JVC-cannulated CD-1 mice were infected intraperitoneally with E. coli BAA2469. At t = 1 h and t = 6 h, SMT-738 was intravenously infused over 60 min (BID). The mice from the pre-treatment group were euthanized at 1 h post-infection. All remaining mice were euthanized at 9 h post-infection, and blood samples were collected via cardiac puncture. Blood samples were serially diluted in PBS and plated onto cystine-lactose-electrolyte-deficient (CLED) agar. The viable bacterial burden for each sample was determined following overnight incubation at 37°C. A Kruskal-Wallis statistical test was performed.
# [8] = Solubility in formulation vehicle; assay type: physicochemical; settings: 20% Hydroxypropyl-β-cyclodextrin or phosphate buffer pH 6.0
# [9] = 100 MDR clinical isolates incl. ESBL and CRE
# [10] = single-step selection at 4× and 8× the MIC, after 24 and 48 h
compound,measurement,setting,value
Cc1cnccc1-c1[nH]c(N)nc1-c1ccc2c(c1)N(C(=O)C(C)(C)N)CCO2 [SMT-738],MIC Range E. coli (NDM),"E. coli; 15 clinical MDR NDM isolates (NDM-1, NDM-4, NDM-5) from India (2018)",0.25 to 1 µg/mL
same,MIC50 E. coli,E. coli; [9],0.5 µg/mL
same,MIC90 E. coli,E. coli; [9],1 µg/mL
same,MIC range E. coli,E. coli; [9],0.12 to 4 µg/mL
same,MIC,E. coli; E. coli BAA 2469 (NDM-1 positive),0.5 µg/mL
same,MIC (20% HS),"E. coli; E. coli IHMA 2015405, 20% human serum",0.25 µg/mL
same,MIC (50% HS),"E. coli; E. coli IHMA 2015405, 50% human serum",0.25 µg/mL
same,MIC (no HS),"E. coli; E. coli IHMA 2015405, no human serum",0.5 µg/mL
same,MIC (20% HS),"E. coli; E. coli IHMA 2051414, 20% human serum",0.5 µg/mL
same,MIC (50% HS),"E. coli; E. coli IHMA 2051414, 50% human serum",0.5 µg/mL
same,MIC (no HS),"E. coli; E. coli IHMA 2051414, no human serum",0.5 µg/mL
same,MIC,"E. coli; E. coli NCTC 13441 (UPEC, MDR, CTX-M-15 ESBL)",0.39 µM and 0.15 µg/mL
same,MIC,E. coli; E. coli UTI89,0.5 µg/mL
same,MICref,"E. coli; UPEC13441, reference MIC of the FoR experiments",0.3 µg/mL
same,MIC,[1],0.12 to 2 µg/mL
same,MIC,Edwardsiella tarda,32 µg/mL
same,MIC,Haemophilus influenzae,1 µg/mL
same,MIC,[2],1 µg/mL
same,MIC,Hafnia alvei,32 µg/mL
same,MIC,Morganella morganii,> 64 µg/mL
same,MIC,Proteus sp.,8 to 32 µg/mL
same,FoR Range,"[3]; 4× MICref, 48 h",1.52E-09
same,FoR Range,"[3]; 8× MICref, 24 h",7.20E-10
same,Frequency of resistance (FoR),[3]; [10],≤ 10^−9
same,LoD Range,"[4]; 4× MICref, 24 h",< 2.26E-09
same,FoR Range,"[4]; 4× MICref, 48 h",1.50E-09
same,LoD Range,"[4]; 4× MICref, 48 h",< 2.26E-09
same,LoD Range,"[4]; 8× MICref, 24 h",< 2.26E-09
same,FoR Range,"[4]; 8× MICref, 48 h",3.75E-10
same,LoD Range,"[4]; 8× MICref, 48 h",< 2.26E-09
same,Frequency of resistance (FoR),[4]; [10],≤ 10^−9
same,MIC fold change increase,[5]; LolC L256R mutant,L256R (16×)
same,MIC fold change increase,[5]; LolE D264A mutant,D264A (128×)
same,IC50,HepG2,> 200 µM
same,cytotoxicity IC50,HepG2,> 78.74 µg/mL
same,IC50,HEK293,> 200 µM
same,cytotoxicity IC50,HEK293,> 78.74 µg/mL
same,genotoxicity,[6],No toxicity was observed
same,protein binding,"Protein binding, mouse",66.9%
same,protein binding,"Protein binding, rat",64.4%
same,protein binding,"Protein binding, human",62.7%
same,efficacy in the blood,[7]; 10 mg/kg BID,almost as efficacious as the 20 mg/kg BID dose
same,reduction of bacterial burden compared to pre-treatment,"[7]; blood, 20 mg/kg BID",4 log10
same,Solubility,[8],> 20 mg/mL
